Measurements: patent publication US10336675B2, “Biaromatic vitamin D analogs” (DSM IP ASSETS B.V., priority 2015, dated 2019)

Biological target: T1, human vitamin D receptor (VDR) (Homo sapiens, UniProt P11473)
T1 construct: expressed in transfected cells; host or cells: HEK293 cells (ATCC), transient transfection with a GATEWAY-compatible pCMV-BD vector
T1 sequence (P11473 127-423 limits assumed): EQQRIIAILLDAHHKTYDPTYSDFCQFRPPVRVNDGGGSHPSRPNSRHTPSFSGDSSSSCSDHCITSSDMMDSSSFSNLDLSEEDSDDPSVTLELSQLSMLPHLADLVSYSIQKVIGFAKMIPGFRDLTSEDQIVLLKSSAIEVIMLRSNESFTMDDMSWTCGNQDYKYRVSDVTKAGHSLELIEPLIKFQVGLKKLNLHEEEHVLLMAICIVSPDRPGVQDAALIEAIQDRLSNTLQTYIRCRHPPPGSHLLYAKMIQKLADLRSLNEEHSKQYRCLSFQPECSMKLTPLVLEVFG
Experiment: Human vitamin D receptor (VDR) agonist activity: GAL4-VDR LBD luciferase transactivation assay in transiently transfected HEK293 cells
Format: cell-based
Conditions: VDR LBD-GAL4 DBD fusion, pFR-Luc luciferase reporter, 16 h incubation, read-out: Effective concentrations of half maximal activation (EC50)
Excerpt: By way of example, the human vitamin D receptor (VDR) agonist activity of the claimed compounds can be tested using a cell based transactivation assay in an eukaryotic cell line. After a co-transfection, using a reporter plasmid construct and a hybrid receptor construct containing the ligand-binding domain of the human VDR linked to the DNA-binding domain of the yeast transcription factor GAL4, the cultured cells were stimulated by the VDR agonists. The hybrid VDR-GAL4 receptor binds the VDR agonists and transactivates luciferase reporter expression through the GAL4-response elements in the promoter of the luciferase gene (reporter construct). The VDR agonist binding and transactivation is determined by measuring the luciferase luminescence activity. The effective concentration of half maximal activation (EC50) was determined for the VDR agonists by means of dose-response experiments. The details of the protocol method of this test according to the invention are described in the example section.
Testing of the Human Vitamin D Receptor (VDR) Agonist Activity of the Compounds
The transient transfections were performed in HEK293 cells (ATCC, Molsheim, France) grown in minimum essential medium (Eagle) with Earle's balanced salt solution without L-glutamine and supplemented with 10% fetal bovine serum (Sigma-Aldrich Corp., St. Gallen, Switzerland), 2 mM glutamax (Life Technologies AG, Basel, Switzerland), 0.1 mM non-essential amino acids (Life Technologies), and 1 mM sodium pyruvate (Life Technologies) at 37° C. in 5% CO2. For transfection, 7.5×10^4 cells were plated per well (80 μl) in white 96-well cell culture plates with clear bottom (Corning, Basel, Switzerland) in minimum essential medium (Eagle) with Earle's balanced salt solution without L-glutamine and without phenol red supplemented with 10% charcoal-treated fetal bovine serum (HyClone Laboratories, Inc., Logan, Utah, USA), 2 mM glutamax, 0.1 mM non-essential amino acids, and 1 mM sodium pyruvate. The cells were transiently transfected before stimulation the next day at >80% confluence by polyethylene-imine-based transfection. Compound stocks were prepared in DMSO, pre-diluted in PBS (0.45% final DMSO concentration), and added in the respective dilution 5 h after the addition of the transfection mixture onto the cells. The cells were again incubated for additional 16 h before firefly and renilla luciferases activity was measured sequentially in the same cell extract using buffers according to established protocols (Promega AG, Dübendorf, Switzerland). Transfection efficiency was controlled to the pRL-TK renilla luciferase reporter expression.

Question: How did the EC50 turn out when CC/C(=C\C=C\C(O)(C(F)(F)F)C(F)(F)F)c1cccc(CCc2ccc(C(O)CCO)cc2)c1 (racemic) [I-b, 1-(4-(3-((3E,5E)-8,8,8-trifluoro-7-hydroxy-7-(trifluoromethyl)octa-3,5-dien-3-yl)phenethyl)phenyl)propane-1,3-diol] was run?
Answer: 12 nM

Question: With CC/C(=C\C=C\C(O)(CC)CC)c1cccc(CCc2ccc(C(O)CCO)cc2)c1 (racemic) [I-c, 1-(4-(3-((3E,5E)-7-ethyl-7-hydroxynona-3,5-dien-3-yl)phenethyl)phenyl)propane-1,3-diol] as the compound, how does the EC50 read?
Answer: 13 nM

Question: Which EC50 does the source give for CC/C(=C\C=C\C(O)(CC)CC)c1cccc(CCc2ccc(C(O)C(CO)CCCCO)cc2)c1 (stereo not shown) [Comp1, reference compound] here?
Answer: 111 nM

Question: With CC/C(=C\C=C\C(O)(CC)CC)c1cccc(CCc2ccc(C(O)CC(C)O)cc2)c1 (stereo not shown) [I-a, 1-(4-(3-((3E,5E)-7-ethyl-7-hydroxynona-3,5-dien-3-yl)phenethyl)phenyl)butane-1,3-diol] as the compound, how does the EC50 read?
Answer: 4 nM

Question: CC/C(=C\C=C\C(O)(CC)CC)c1cccc(CCc2ccc(C(O)C(C)CO)cc2)c1 (stereo not shown) [I-d, 1-(4-(3-((3E,5E)-7-ethyl-7-hydroxynona-3,5-dien-3-yl)phenethyl)phenyl)-2-methylpropane-1,3-diol] was tested. Which EC50 did it give?
Answer: 28 nM

Question: How did the EC50 turn out when CC/C(=C\C=C\C(O)(CC)CC)c1cccc(CCc2ccc(C(O)C(CO)CCCO)cc2)c1 (stereo not shown) [I-e, 1-(4-(3-((3E,5E)-7-ethyl-7-hydroxynona-3,5-dien-3-yl)phenethyl)phenyl)-2-(hydroxymethyl)pentane-1,5-diol] was run?
Answer: 30 nM

Question: For CC/C(=C\C=C\C(O)(CC)CC)c1cccc(CCc2ccc(C(O)C(C)C(C)O)cc2)c1 (stereo not shown) [I-f, 1-(4-{2-[3-((1E,3E)-1,5-Diethyl-5-hydroxy-hepta-1,3-dienyl)-phenyl]-ethyl}-phenyl)-2-methylbutane-1,3-diol], which EC50 is on record?
Answer: 34 nM
